The record followed here is patent US20230286816A1, “LITHIATED SILICON” (KING'S COLLEGE LONDON, priority 2020, published 2023).

In the assay the test system is Wnt/β-catenin cell signalling pathway (downstream target gene Axin2). The assay is described as follows: Axin2 expression (qPCR) in cells in medium conditioned with particles. It is filed as cell-based. Conditions: 25 mM LiCl, 17IA4 cells. The procedure:
Biological activity of released lithium was measured by monitoring activation of Wnt/β-catenin cell signalling pathway by measuring the expression of the pathway's well-known downstream target gene Axin2. The experiment was done with cell medium conditioned with corresponding batch of nanoparticles. Known amounts of LipSi nanoparticles were pelleted with a centrifuge and sterile supernatant was removed. Nanoparticles were dried under tissue culture hood. Cell medium (αMEM supplemented with 10% FBS, 1% antibiotic/antimycotic solution and 25 mM HEPES) was added onto pellet and particles were redispersed with ultrasound. Concentrations of the particles were 0.8 mg/ml (FIG. 6a) and 1.6 mg/ml (FIG. 6b). Vials were incubated in thermoshaker at 37° C. for four days. Particles were centrifuged down and supernatant was collected under sterile conditions. Conditioned medium (supernatant) was filtered with 0.22 μm syringe filter.
20,000 cells/cm^2 of mesenchymal cells (17IA4) were seeded onto 24 well plate. Cells were incubated approximately for 24 hours until 80% confluent and the normal medium was changed to conditioned. Cells were incubated (37° C., 5% CO2) in conditioned medium for 24 h. […] Reported fold changes represent Axin2 expression in the sample compared to Axin2 expression in medium and they are calculated with ΔΔCt method as known in the art.

As for `[Cl-].[Li+]` [LiCl, lithium chloride], the “increase of Axin2 expression compared to medium” value is, setting by setting: (experiment of FIG. 6a (with SS9)) 3.2 fold; (experiment of FIG. 6b (with SS19)) 2.6 fold.
